Reference: PubChem BioAssay (NCI)
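96-well plates; 48 h exposure; 5 concentrations. Endpoints by linear interpolation between flanking doses. Not reached: highest tested concentration assigned. GI50: concentration for 50% inhibition of growth. TGI is the concentration that stops growth completely.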

Experiments:
Assay in all cases: NCI tumour cell line growth inhibition, 48 h
U251 CNS = tested on: U251 CNS
SF-539 CNS = tested on: SF-539 CNS
NCI-H522 lung = tested on: NCI-H522 lung
RXF 393 renal = tested on: RXF 393 renal
A498 renal = tested on: A498 renal
SW-620 colon = tested on: SW-620 colon
PC-3 prostate = tested on: PC-3 prostate
HOP-62 NSCLC = tested on: HOP-62 NSCLC
OVCAR-4 ovarian = tested on: OVCAR-4 ovarian
SK-OV-3 ovarian = tested on: SK-OV-3 ovarian
DU-145 prostate = tested on: DU-145 prostate
SK-MEL-5 melanoma = tested on: SK-MEL-5 melanoma
HOP-92 NSCLC = tested on: HOP-92 NSCLC
OVCAR-8 ovarian = tested on: OVCAR-8 ovarian
MOLT-4 leukemia = tested on: MOLT-4 leukemia
TK-10 renal = tested on: TK-10 renal
MDA-MB-435 = tested on: MDA-MB-435
HCC-2998 colon = tested on: HCC-2998 colon
ACHN renal = tested on: ACHN renal
SF-268 CNS = tested on: SF-268 CNS
RPMI-8226 leukemia = tested on: RPMI-8226 leukemia
K-562 leukemia = tested on: K-562 leukemia
CCRF-CEM leukemia = tested on: CCRF-CEM leukemia
NCI/ADR-RES ovarian = tested on: NCI/ADR-RES ovarian
NCI-H226 lung = tested on: NCI-H226 lung
HCT-15 colon = tested on: HCT-15 colon
MDA-MB-231 breast = tested on: MDA-MB-231 breast
UO-31 renal = tested on: UO-31 renal
HS 578T breast = tested on: HS 578T breast
OVCAR-3 ovarian = tested on: OVCAR-3 ovarian
SNB-75 CNS = tested on: SNB-75 CNS
HCT-116 colon = tested on: HCT-116 colon
SK-MEL-2 melanoma = tested on: SK-MEL-2 melanoma
COLO 205 colon = tested on: COLO 205 colon
SR leukemia = tested on: SR leukemia
BT-549 breast = tested on: BT-549 breast
SK-MEL-28 melanoma = tested on: SK-MEL-28 melanoma
SF-295 CNS = tested on: SF-295 CNS
KM12 colon = tested on: KM12 colon
UACC-62 melanoma = tested on: UACC-62 melanoma
IGROV1 ovarian = tested on: IGROV1 ovarian
M14 melanoma = tested on: M14 melanoma
MALME-3M melanoma = tested on: MALME-3M melanoma
MCF7 breast = tested on: MCF7 breast
NCI-H460 lung = tested on: NCI-H460 lung
HL-60(TB) leukemia = tested on: HL-60(TB) leukemia
786-0 renal = tested on: 786-0 renal
EKVX NSCLC = tested on: EKVX NSCLC
T-47D breast = tested on: T-47D breast
SNB-19 CNS = tested on: SNB-19 CNS
SN12C renal = tested on: SN12C renal
OVCAR-5 ovarian = tested on: OVCAR-5 ovarian
NCI-H23 lung = tested on: NCI-H23 lung
A549 NSCLC = tested on: A549 NSCLC
LOX IMVI melanoma = tested on: LOX IMVI melanoma
HT29 colon = tested on: HT29 colon
UACC-257 melanoma = tested on: UACC-257 melanoma
CAKI-1 renal = tested on: CAKI-1 renal

CN1CCN(Cc2ccc(NC(=O)c3[nH]ncc3Nc3cc(OC4CCCC4)ncn3)cc2)CC1
GI50 (U251 CNS): 3.38 µM
TGI (U251 CNS): 12.7 µM
GI50 (SF-539 CNS): 1.9 µM
TGI (SF-539 CNS): 5.02 µM
GI50 (NCI-H522 lung): 2.15 µM
TGI (NCI-H522 lung): 7.91 µM
GI50 (RXF 393 renal): 1.36 µM
TGI (RXF 393 renal): 2.91 µM
GI50 (A498 renal): 6.37 µM
TGI (A498 renal): 19.4 µM
GI50 (SW-620 colon): 2.66 µM
TGI (SW-620 colon): 7.25 µM
GI50 (PC-3 prostate): 2.26 µM
TGI (PC-3 prostate): 11.1 µM
GI50 (HOP-62 NSCLC): 3.7 µM
TGI (HOP-62 NSCLC): 13.2 µM
GI50 (OVCAR-4 ovarian): 2.07 µM
TGI (OVCAR-4 ovarian): 7.18 µM
GI50 (SK-OV-3 ovarian): 1.28 µM
TGI (SK-OV-3 ovarian): 4.36 µM
GI50 (DU-145 prostate): 2.35 µM
TGI (DU-145 prostate): 12.9 µM
GI50 (SK-MEL-5 melanoma): 1.44 µM
TGI (SK-MEL-5 melanoma): 4.07 µM
GI50 (HOP-92 NSCLC): 6.69 µM
TGI (HOP-92 NSCLC): 18.6 µM
GI50 (OVCAR-8 ovarian): 4.95 µM
TGI (OVCAR-8 ovarian): 26.9 µM
GI50 (MOLT-4 leukemia): 2.16 µM
TGI (MOLT-4 leukemia): 8.66 µM
GI50 (TK-10 renal): 11 µM
TGI (TK-10 renal): 23.7 µM
GI50 (MDA-MB-435): 1.84 µM
TGI (MDA-MB-435): 8.32 µM
GI50 (HCC-2998 colon): 3.1 µM
TGI (HCC-2998 colon): 10.5 µM
GI50 (ACHN renal): 1.09 µM
TGI (ACHN renal): 3.1 µM
GI50 (SF-268 CNS): 4.48 µM
TGI (SF-268 CNS): 19 µM
GI50 (RPMI-8226 leukemia): 2.94 µM
TGI (RPMI-8226 leukemia): 6.71 µM
GI50 (K-562 leukemia): 1.64 µM
TGI (K-562 leukemia): 13.3 µM
GI50 (CCRF-CEM leukemia): 2.39 µM
TGI (CCRF-CEM leukemia): 11.2 µM
GI50 (NCI/ADR-RES ovarian): 3.68 µM
TGI (NCI/ADR-RES ovarian): 15 µM
GI50 (NCI-H226 lung): 2.98 µM
TGI (NCI-H226 lung): 10.8 µM
GI50 (HCT-15 colon): 1.24 µM
TGI (HCT-15 colon): 11 µM
GI50 (MDA-MB-231 breast): 2.64 µM
TGI (MDA-MB-231 breast): 7.46 µM
GI50 (UO-31 renal): 1.4 µM
TGI (UO-31 renal): 11.2 µM
GI50 (HS 578T breast): 2.2 µM
TGI (HS 578T breast): 30 µM
GI50 (OVCAR-3 ovarian): 1.77 µM
TGI (OVCAR-3 ovarian): 3.69 µM
GI50 (SNB-75 CNS): 3.53 µM
TGI (SNB-75 CNS): 16.4 µM
GI50 (HCT-116 colon): 0.755 µM
TGI (HCT-116 colon): 11 µM
GI50 (SK-MEL-2 melanoma): 3.75 µM
TGI (SK-MEL-2 melanoma): 15.3 µM
GI50 (COLO 205 colon): 1.24 µM
TGI (COLO 205 colon): 3.11 µM
GI50 (SR leukemia): 1.03 µM
TGI (SR leukemia): 6.1 µM
GI50 (BT-549 breast): 1.75 µM
TGI (BT-549 breast): 3.97 µM
GI50 (SK-MEL-28 melanoma): 1.78 µM
TGI (SK-MEL-28 melanoma): 3.87 µM
GI50 (SF-295 CNS): 2.93 µM
TGI (SF-295 CNS): 12.5 µM
GI50 (KM12 colon): 2.18 µM
TGI (KM12 colon): 6.19 µM
GI50 (UACC-62 melanoma): 3.44 µM
TGI (UACC-62 melanoma): 11.1 µM
GI50 (IGROV1 ovarian): 1.75 µM
TGI (IGROV1 ovarian): 10.8 µM
GI50 (M14 melanoma): 1.35 µM
TGI (M14 melanoma): 3.62 µM
GI50 (MALME-3M melanoma): 2.05 µM
TGI (MALME-3M melanoma): 5.43 µM
GI50 (MCF7 breast): 1.59 µM
TGI (MCF7 breast): 4.96 µM
GI50 (NCI-H460 lung): 1.61 µM
TGI (NCI-H460 lung): 5.97 µM
GI50 (HL-60(TB) leukemia): 1.77 µM
TGI (HL-60(TB) leukemia): 4.3 µM
GI50 (786-0 renal): 1.35 µM
TGI (786-0 renal): 3.1 µM
GI50 (EKVX NSCLC): 3.86 µM
TGI (EKVX NSCLC): 18.6 µM
GI50 (T-47D breast): 5.06 µM
TGI (T-47D breast): 21.5 µM
GI50 (SNB-19 CNS): 4.74 µM
TGI (SNB-19 CNS): 15.7 µM
GI50 (SN12C renal): 3.37 µM
TGI (SN12C renal): 13.8 µM
GI50 (OVCAR-5 ovarian): 2.79 µM
TGI (OVCAR-5 ovarian): 7.12 µM
GI50 (NCI-H23 lung): 3.07 µM
TGI (NCI-H23 lung): 14.4 µM
GI50 (A549 NSCLC): 2.11 µM
TGI (A549 NSCLC): 10.5 µM
GI50 (LOX IMVI melanoma): 1.63 µM
TGI (LOX IMVI melanoma): 3.83 µM
GI50 (HT29 colon): 2.53 µM
TGI (HT29 colon): 8.53 µM
GI50 (UACC-257 melanoma): 3.42 µM
TGI (UACC-257 melanoma): 9.6 µM
GI50 (CAKI-1 renal): 0.366 µM
TGI (CAKI-1 renal): 9.11 µM
